Test results as given in PMC11203719, “Mts1 (S100A4) and Its Peptide Demonstrate Cytotoxic Activity in Complex with Tag7 (PGLYRP1) Peptide” (International Journal of Molecular Sciences, 2024).
Entries after “also recorded” stand apart in the source; their conditions may differ. No end group written: not given here.

Columns and labels:
TNFR1 = details: cited from earlier work; for inhibition of cytotoxic effect of TNFR1 ligands: ref [19]
Source text: (§1) We investigated developing cytotoxic processes during TNFR1 activation and found two new proteins interacting with this receptor: the immune system regulator PGLYRP1 (Tag7) and DNA-hydrolyzing autoantibodies. […] For the manifestation of Tag7 cytotoxic action, the presence of a coactivator, stimulating cytotoxicity, is necessary. During antitumor studies, a cytotoxic complex released by human ... || Structural and functional analyses of Tag7 made it possible to localize the epitope of this protein necessary for interaction with TNFR1 and Hsp70. […] It was also possible to separate the activities of this bifunctional peptide.

L929 cells = assay: Cytotoxicity, L929 cells; type: cell-based; details: complexes of Mts1 with 17.1A, 17.1B or full-sized Tag7; L929 cells (Figure 2b), 24 h, n = 5
Mts1 (S100A4) = target: T1, Mts1 (S100A4) (Homo sapiens, UniProt P26447); assay: Microscale thermophoresis, binding to labeled Mts1
T1 construct: a functional fragment of the Tag7 protein (PGLYRP1) and a full-sized Mts1 protein (S100A4); His tag (from vector pQE-30; purified on HisTrap FF) (N); made in house; host or cells: Escherichia coli M15 (pREP4)
Protocol: To evaluate the protein–protein interaction of Mts1 with Tag7 and with peptides, 17.1, 17.1A, and 17.1B, a quantitative microscale thermophoresis method was used to reliably determine the parameters of the interaction of protein complexes.
To study the dissociation constant, purified Mts1 was fluorescently labeled using Alexa Fluor 633 (Invitrogen, Eugene, OR, USA) in accordance with the manufacturer’s protocol. Mts1 (200 nM) was preincubated for 20 min with Tag7-Mts1, 17.1-Mts1, 17.1A-Mts1, and 17.1B-Mts1 in the dark at room temperature in 16 different concentrations, obtained by sequential dilution. To study the dissociation constant of Tag7 with M7, Tag7 was fluorescently labeled using Alexa Fluor 488 (Invitrogen, Eugene, OR, USA) in accordance with the manufacturer’s protocol. Tag7 (200 nM) was preincubated for 20 min with M7 in the dark at room temperature in 16 different concentrations, obtained by sequential dilution. The samples were loaded into glass capillaries of Monolith NT Capillaries (NanoTemper Technologies GmbH, München, Germany) and analyzed by thermophoresis on a Monolith NT 115 nanotemperature apparatus (10% IR laser power). The signal quality was monitored using a NanoTemper Monolith device to detect possible ligand autofluorescence, deposition, aggregation, or ligand-induced changes in the photobleaching rate. The experiments were carried out in at least three repetitions and processed using affinity analysis software (MO Control v.1.6.1, NanoTemper Technologies GmbH, München, Germany).

Hsp70 = details: ref [19]; cited from earlier work
Source text: Structural and functional analyses of Tag7 made it possible to localize the epitope of this protein necessary for interaction with TNFR1 and Hsp70. […] It was also possible to separate the activities of this bifunctional peptide.

Tag7-Hsp70 complex = details: excess of Mts1; ref [22]; cited from earlier work
Source text: (§2) During a study on the anticancer effect of the Tag7-Hsp70 complex on metastatic cells, the second partner of the Tag7 protein was identified. Tag7 interacts with Mts1 (metastasin 1, S100A4), a member of the S-100 family involved in metastasis processes. Both proteins form the Tag7-Mts1 chemotactic complex.

[1] = system: TNFR1 on the surface of HEK293T cells; assay: Cross-linking (BS3) to TNFR1 on cell surface, anti-TNFR1 pull-down, Western blot; type: binding, human; details: 17.1-Mts1 at 1 nM, anti-TNFR1 beads
Protocol: We investigated the ability of peptide 17.1 to form a complex with Mts1 and TNFR1 on the cell surface. The 17.1-Mts1 complex was added to HEK293T cells with TNFR1s on their surface. After incubation, a crosslinking agent (BS^3) was added, forming covalent bonds between molecules located at a distance of less than 1 nm at the time of addition. Next, the cells were lysed, and membrane proteins were precipitated using anti-TNFR1 antibodies conjugated with magnetic beads. The obtained material was separated using SDS electrophoresis and detected using Western blotting with polyclonal antibodies to Mts1 or Tag7.
A column with CNBr-activated Sepharose 4B (GE Healthcare, Chicago, IL, USA) conjugated with 17.1 was prepared as described in accordance with the manufacture’s protocol. The recombinant Mts1 protein was loaded into a column with 17.1-Sepharose 4B. Then, the material was extensively washed with PBS plus 0.5 M NaCl, followed by PBS, eluted with 0.25 M triethylamine, pH 12. The eluted material was resolved using 12% SDS-PAGE and applied to a nitro-cellulose membrane. […] The chemiluminescence was recorded using iBright (Thermo Fisher Scientific, Boston, MA, USA). […] Protein concentrations were quantified using a Bradford assay kit (Thermo Fisher Scientific, Carlsbad, CA, USA). […]

Mts1 = assay: Affinity chromatography on 17.1-Sepharose with Western blot for Mts1; type: binding, human; details: recombinant Mts1 100 ng, 17.1 immobilized on CNBr-activated Sepharose; eluted 0.25 M triethylamine; Mts1 eluted as tetramer
Protocol: In the previous section, we noted the competition between Hsp70 and Mts1 for the binding center of Tag7. We have shown that Hsp70 interacts with peptide 17.1, which is located at the C-terminal region of the polypeptide chain Tag7. […] The recombinant Mts1 protein (100 ng total protein, 0.1 mg/mL) was applied to CNBr-activated Sepharose with immobilized peptide 17.1. The bound proteins were eluted and analyzed using SDS-PAGE and a subsequent Western blot test with specific anti-Mts1 antibodies. It was shown that Mts1 is present in the eluate in the form of a tetramer (Figure 1).
A column with CNBr-activated Sepharose 4B (GE Healthcare, Chicago, IL, USA) conjugated with 17.1 was prepared as described in accordance with the manufacture’s protocol. The recombinant Mts1 protein was loaded into a column with 17.1-Sepharose 4B. Then, the material was extensively washed with PBS plus 0.5 M NaCl, followed by PBS, eluted with 0.25 M triethylamine, pH 12. The eluted material was resolved using 12% SDS-PAGE and applied to a nitro-cellulose membrane. […] The chemiluminescence was recorded using iBright (Thermo Fisher Scientific, Boston, MA, USA). […] Protein concentrations were quantified using a Bradford assay kit (Thermo Fisher Scientific, Carlsbad, CA, USA). […]

[2] = system: TNFR1-positive tumor cells; details: cited from earlier work
Source text: as §1

lymphocytes = details: ref [22]; cited from earlier work
Source text: as §2

T1 sequence (P26447 whole entry, the tested form may be a part): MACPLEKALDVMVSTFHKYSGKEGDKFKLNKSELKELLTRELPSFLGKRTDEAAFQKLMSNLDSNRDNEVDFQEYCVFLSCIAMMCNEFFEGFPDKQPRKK

Tag7: recombinant full-size Tag7 protein (PGLYRP1)
inhibition of cytotoxic activity of TNF and other TNFR1 ligands (TNFR1; previous work, reference not clearly printed): acts as an inhibitor of the cytotoxic activity of TNF and other TNFR1 ligands | cytotoxic activity in complex with Mts1 (L929 cells): does not have a cytotoxic effect on cells; also recorded: does not form a cytotoxic complex with the Mts1 protein | affinity for Mts1 (in words) (Mts1 (S100A4)): significantly higher apparent Kd

HRDVQRT [17.1B]
affinity for Mts1 (in words) (Mts1 (S100A4)): highly specific | affinity for Hsp70 (Hsp70): high affinity for Hsp70

RSNYVLKG [17.1A]
inhibition of cytotoxic effect of TNFR1 ligands (TNFR1): responsible for binding to TNFR1 and inhibiting cytotoxicity | cytotoxic activity in complex with Mts1 (L929 cells): does not contribute to the appearance of cytotoxicity | affinity for Mts1 (in words) (Mts1 (S100A4)): significantly higher apparent Kd; also recorded: low affinity

Mts1: recombinant human Mts1 (S100A4) protein
displacement of Hsp70 from Tag7-Hsp70 complex (Tag7-Hsp70 complex): displaces Hsp70 from the Tag7-Hsp70 complex | interaction with TNFR1 on cell surface [1]: binds to the TNFR1 receptor on the cell surface

SNYVLKGHRDVQ [17.1]
binding to Mts1 (Mts1): 17.1 binds to Mts | inhibition of cytotoxic effect of TNFR1 ligands (TNFR1): inhibits the cytotoxic effect of TNFR1 ligands | death of tumor cells in combination with Hsp70 ([2]; in combination with Hsp70, ref [19]): induces the death of tumor cells | affinity for Mts1 (in words) (Mts1 (S100A4)): highly specific

Tag7-Mts1: complex of full-sized Tag7 with Mts1
cytotoxic activity ([2]; previous study, ref [22]): no cytotoxic activity | chemotactic activity (lymphocytes): induces the movement of lymphocytes along the concentration gradient of this complex | Kd (Mts1 (S100A4); first-named partner titrated (16 concentrations) to Alexa Fluor 633-labeled Mts1 (200 nM), 20 min, room temperature, at least three repetitions, mean ± SD): 9.21 ± 1.5 µM
